Data: US7217564B2, “Cytotoxic assay and new established cell line of sturgeon origin” (priority 2002, dated 2007)
Where two headings read alike, the source gives them in different places.

Columns and labels:
STIP-1 cells = experiment: cells; format: cell-based, Bester (Huso huso X Acipenser ruthenus); settings: for EC50: read-out: EC50 (toxicity concentration value which effects on 50% of the cells); for toxicity ranking to the STIP-1 cells: within the tested series (nine heavy metals / twelve phenols)
Excerpt: (§1) The Alamar Blue assay is one of the bioassay methods being developed to measure the cellular metabolisms of the animal cells or the like. The Alamar Blue pigment is an oxidation-reduction pigment which should be incorporated in a cell for its reduction. The Alamar Blue pigment has the characteristics to be changed from an oxidation type (non-fluorescence/blue) to a reduction type (fluorescence/red) by the reduction reaction of the respiratory metabolism system done in mitochondria. If the cellular metabolism is normal, the reduction reaction proceeds in normal. On the other hand, if the cellular metabolism becomes abnormal, the oxidation type is remained as it is. Therefore, the abnormality of a cellular metabolism can be determined by measuring the change in color. Furthermore, the measurement of a cellular metabolism may be based on the fluorescence and the light absorption. In this case the fluorescence is monitored by an excitation wavelength of 530 nm to 560 nm and a detection wavelength of 590 nm, and the light absorption is monitored at wavelengths of 570 nm and 600 nm.
Cells were cultured in a 96-well microtiter plate in a CO2 incubator (air atmosphere) at 20° C. until it became confluent. The culture was performed using a culture medium prepared by adding 10% fetal bovine serum (FBS) (manufactured by Gibco Co., Ltd.), penicillin (10 unit/ml) and streptomycin (50 μg/ml) in a Leibovitz's L15 culture medium (manufactured by Gibco Co., Ltd.).
A 0.2M aqueous solution of a specimen (cadmium chloride, CdCl2.2H2O) was prepared and was then sterilized by passing through a filter of 0.2 μm in pore size to be preserved at 4° C. […] For a comparison example, the culture medium in the absence of the specimen was inoculated in a well. After 24 hours passed, an Alamar Blue pigment was added and an additional culture was continued for further 24 hours.
Subsequently, by using a microplate reader, the light absorbance of each well was measured using two wavelengths (570 nm and 600 nm). The inhibition value of a cellular metabolism with the cadmium aqueous solution was measured as a reduction rate of a well (a sample) inoculated with a cadmium aqueous solution to a well only containing the culture medium as a control. The calculation was performed using the following equation.
A=sample well (A570 nm−A600 nm)−blank well (A570 nm−A600 nm), and
B=control well (A570 nm−A600 nm)−blank well (A570 nm−A600 nm).
In addition, (A/B)×100 means a survival rate (%) of cells.
(B) Evaluations of toxicities of eight kinds of heavy metals except of cadmium to the STIP-1 cells were performed by the same way as described in the above (A).

STIP-3 cells = experiment: Cytotoxic test using STIP-3 cells, Alamar Blue assay; format: cell-based, Bester (Huso huso X Acipenser ruthenus); settings: 20° C., 24 hours with specimen, then Alamar Blue for further 24 hours, read-out: EC50 (toxicity concentration value which effects on 50% of the cells)
Excerpt: as §1
Cells were cultured in a 96-well microtiter plate in a CO2 incubator (air atmosphere) at 20° C. until it became confluent. […]
Subsequently, by using a microplate reader, the light absorbance of each well was measured using two wavelengths (570 nm and 600 nm). […]

[1] = Huso huso, STIP-1 cells, 20° C., 24 hours with specimen, then Alamar Blue for further 24 hours
[2] = STIP-1 cells, 20° C., 24 hours with specimen, then Alamar Blue for further 24 hours

Oc1c(Cl)cc(Cl)c(Cl)c1Cl [2,3,4,6-tetrachlorophenol]
EC50 (STIP-1 cells; [1]): 9 µM

Oc1cccc(Cl)c1Cl [2,3-dichlorophenol]
EC50 (STIP-1 cells; [1]): 80 µM

Oc1cc(Cl)c(Cl)cc1Cl [2,4,5-trichlorophenol]
EC50 (STIP-1 cells; [1]): 7 µM | toxicity ranking to the STIP-1 cells (STIP-1 cells): strongest toxicity

Oc1ccc(Cl)cc1Cl [2,4-dichlorophenol]
EC50 (STIP-1 cells; [1]): 55 µM

Oc1cc(Cl)ccc1Cl [2,5-dichlorophenol]
EC50 (STIP-1 cells; [1]): 56 µM

Oc1c(Cl)cccc1Cl [2,6-dichlorophenol]
EC50 (STIP-1 cells; [1]): 900 µM

Oc1ccc(Cl)c(Cl)c1 [3,4-dichlorophenol]
EC50 (STIP-1 cells; [1]): 30 µM

[Cl-].[Cl-].[Co+2] [CoCl2.6H2O]
EC50 (STIP-1 cells; [2]): 2200 µM

[Cl][Cu][Cl] [CuCl2.2H2O]
EC50 (STIP-1 cells; [2]): 1320 µM

O.O.O.O.[Cl][Mn][Cl] [MnCl2.4H2O]
toxicity to the STIP-1 cells more than that to the culture cells of other fish origins (STIP-1 cells): about 10 times | EC50 (STIP-1 cells): 400 µM

[Cl][Ni][Cl] [NiCl2.6H2O]
EC50 (STIP-1 cells): > 10000 µM

O=[N+]([O-])[O-].O=[N+]([O-])[O-].[Pb+2] [Pb(NO3)2]
EC50 (STIP-1 cells; [2]): 3300 µM

Oc1c(Cl)c(Cl)c(Cl)c(Cl)c1Cl [Pentachlorophenol]
EC50 (STIP-1 cells; [1]): 90 µM

Oc1ccccc1 [Phenol]
EC50 (STIP-1 cells; Huso huso, 24 h): 8600 µM

O=S(=O)([O-])[O-].[Zn+2] [ZnSO4.7H2O]
EC50 (STIP-1 cells; [2]): 400 µM

[Cl][Cd][Cl] [cadmium, cadmium chloride]
EC50 (STIP-3 cells): 100 µM | EC50 (STIP-1 cells; [2]): 89 µM

Oc1ccc(Cl)cc1 [p-chlorophenol]
EC50 (STIP-1 cells; [1]): 800 µM

O=[N+]([O-])c1ccc(O)cc1 [p-nitrophenol]
EC50 (STIP-1 cells; [1]): 350 µM

HgCl2
EC50 (STIP-1 cells): 85 µM

Tributyl tin
EC50 (STIP-1 cells; STIP-1 cells, 20° C., 24 hours with specimen, then Alamar Blue for further 24 hours, listed as tributyl tin): 0.9 µM | EC50 (STIP-1 cells; [2]): 0.9 µM | toxicity at a concentration lower than other heavy metals (STIP-1 cells; STIP-1 cells, compared with other heavy metals): about 100 times | toxicity ranking to the STIP-1 cells (STIP-1 cells): strongest toxicity
